Measurements taken from US20170291890A1 (Epizyme, Inc., priority 2014, published 2017).
pIC50: −log10 of the molar value.

Target: T1, KDM5A (Homo sapiens, UniProt P29375)
T1 construct: C-terminal FLAG-tagged KDM5A^1-1090 was purchased from BPS Biosciences; FLAG (C); purchased BPS Biosciences
T1 sequence (P29375 1-1090): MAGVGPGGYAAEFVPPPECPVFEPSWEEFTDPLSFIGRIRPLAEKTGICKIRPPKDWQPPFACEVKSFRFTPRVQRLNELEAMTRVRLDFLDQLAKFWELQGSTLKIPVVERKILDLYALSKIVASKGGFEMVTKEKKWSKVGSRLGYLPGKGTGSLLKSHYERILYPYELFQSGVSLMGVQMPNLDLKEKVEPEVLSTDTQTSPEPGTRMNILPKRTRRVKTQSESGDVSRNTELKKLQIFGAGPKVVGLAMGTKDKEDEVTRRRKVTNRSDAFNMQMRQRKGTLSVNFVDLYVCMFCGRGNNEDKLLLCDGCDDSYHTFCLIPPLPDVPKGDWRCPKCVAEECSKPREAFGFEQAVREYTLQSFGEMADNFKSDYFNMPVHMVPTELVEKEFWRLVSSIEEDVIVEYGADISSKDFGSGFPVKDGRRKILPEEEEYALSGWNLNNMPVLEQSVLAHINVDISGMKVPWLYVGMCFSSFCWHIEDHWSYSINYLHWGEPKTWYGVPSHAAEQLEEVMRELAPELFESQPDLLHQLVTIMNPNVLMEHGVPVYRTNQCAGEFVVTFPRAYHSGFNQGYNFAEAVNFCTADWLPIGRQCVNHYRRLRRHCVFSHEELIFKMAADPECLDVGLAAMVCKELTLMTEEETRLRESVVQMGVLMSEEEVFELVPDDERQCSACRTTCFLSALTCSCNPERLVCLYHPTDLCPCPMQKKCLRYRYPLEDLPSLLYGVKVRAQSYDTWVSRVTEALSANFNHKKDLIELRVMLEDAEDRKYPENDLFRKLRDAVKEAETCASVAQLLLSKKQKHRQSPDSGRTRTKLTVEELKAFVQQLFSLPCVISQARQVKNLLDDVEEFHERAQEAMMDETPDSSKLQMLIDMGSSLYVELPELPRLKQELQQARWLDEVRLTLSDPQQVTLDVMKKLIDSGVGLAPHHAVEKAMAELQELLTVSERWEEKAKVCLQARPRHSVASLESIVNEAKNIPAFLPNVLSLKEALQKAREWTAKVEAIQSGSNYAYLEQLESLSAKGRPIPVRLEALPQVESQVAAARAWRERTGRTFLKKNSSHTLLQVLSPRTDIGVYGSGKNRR
Experiment: KDM5A Assay (SAMDI mass spectrometry demethylase assay)
Format: biochemical
Conditions: C-terminal FLAG-tagged KDM5A 1-1090; class symbols; read-out: 5A IC50
Summary of the method: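 FLAG-tagged KDM5A 1-1090 (20 nM) preincubated 30 min with compound in pH 8.0 HEPES buffer with ascorbate, Fe(II), TCEP, then reacted 150 min at 25 °C with H3K4me3 peptide (250 nM) and 2-oxoglutarate (15 μM). Formic acid-quenched; SAMDI-MS substrate/product AUC conversion; IC50 from dose-response.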

O=C(O)c1ccncc1Nc1nn(CCN2CCC(F)(F)CC2)cc1-c1ccccc1 [Compound 14, 3-((1-(2-(4,4-Difluoropiperidin-1-yl)ethyl)-4-phenyl-1H-pyrazol-3-yl)amino)isonicotinic acid]
pIC50: 7.00 to 9.00

O=C(O)c1ccncc1Nc1nn(CCN2CCC(F)(F)CC2)cc1-c1ccc(F)cc1 [Compound 45, 3-((1-(2-(4,4-difluoropiperidin-1-yl)ethyl)-4-(4-fluorophenyl)-1H-pyrazol-3-yl)amino)isonicotinic acid]
pIC50: 7.00 to 9.00

COc1ccc(-n2nc(C)c(Nc3cnccc3C(=O)O)c2C)cc1 [Compound 75, 3-((1-(4-methoxyphenyl)-3,5-dimethyl-1H-pyrazol-4-yl)amino)isonicotinic acid]
pIC50: 4.00 to 5.00

Cc1n[nH]c(-c2ccccc2)c1Nc1cnccc1C(=O)O [Compound 55, 3-((5-methyl-3-phenyl-1H-pyrazol-4-yl)amino)isonicotinic acid]
pIC50: 5.00 to 6.00

Cc1nn(C2CCN(CC(F)(F)F)CC2)cc1Nc1cnccc1C(=O)O [Compound 99, 3-(3-methyl-1-(1-(2,2,2-trifluoroethyl)piperidin-4-yl)-1H-pyrazol-4-ylamino)isonicotinic acid]
pIC50: 6.00 to 7.00

CN(C)CCCn1ncc(-c2ccccc2)c1Nc1cnccc1C(=O)O [Compound 52, 3-((1-(3-(dimethylamino)propyl)-4-phenyl-1H-pyrazol-5-yl)amino) isonicotinic acid]
pIC50: 5.00 to 6.00

Cn1ncc(-c2ccccc2)c1Nc1cnccc1C(=O)O [Compound 1]
pIC50: 5.00 to 6.00

COC(=O)c1ccncc1Nc1cnn(C2CCN(C(C)C)CC2)c1C [Compound 103, methyl 3-((1-(1-isopropylpiperidin-4-yl)-5-methyl-1H-pyrazol-4-yl)amino)isonicotinate]
pIC50: 4.00 to 5.00

Cc1c(Nc2cnccc2C(=O)O)cnn1C1CCN(C(C)C)CC1 [Compound 104]
pIC50: 5.00 to 6.00

O=C(O)c1ccncc1Nc1cnn(CCN2CCC(F)(F)CC2)c1-c1ccccc1 [Compound 18, 3-((1-(2-(4,4-difluoropiperidin-1-yl)ethyl)-5-phenyl-1H-pyrazol-4-yl)amino)isonicotinic acid]
pIC50: 5.00 to 6.00

Cc1nn(-c2ccccc2C#N)cc1Nc1cnccc1C(=O)O [Compound 70, 3-((1-(2-cyanophenyl)-3-methyl-1H-pyrazol-4-yl)amino) isonicotinic acid]
pIC50: 5.00 to 6.00

Cc1n[nH]c(C)c1Nc1cnccc1C(=O)O [Compound 16, 3-((3,5-Dimethyl-1H-pyrazol-4-yl)amino)isonicotinic acid]
pIC50: 4.00 to 5.00

Cc1c(Nc2cnccc2C(=O)O)cnn1C1CCN(CC(F)(F)F)CC1 [Compound 100, 3-(5-methyl-1-(1-(2,2,2-tri-fluoro-ethyl)piperidin-4-yl)-1H-pyrazol-4-ylamino)isonicotinic acid]
pIC50: 5.00 to 6.00

CCn1nc(-c2ccccc2)cc1Nc1cnccc1C(=O)O [Compound 36, 3-((1-Ethyl-3-phenyl-1H-pyrazol-5-yl)amino)isonicotinic acid]
pIC50: 7.00 to 9.00

Cc1nn(-c2ccccc2)c(C)c1Nc1cnccc1C(=O)O [Compound 77, 3-((3,5-dimethyl-1-phenyl-1H-pyrazol-4-yl)amino)isonicotinic acid]
pIC50: 4.00 to 5.00

Cc1c(Nc2cnccc2C(=O)O)nn(CCN2CCC(F)(F)CC2)c1-c1ccccc1 [Compound 67, 3-((1-(2-(4,4-difluoropiperidin-1-yl)ethyl)-4-methyl-5-phenyl-1H-pyrazol-3-yl)amino)isonicotinic acid]
pIC50: 7.00 to 9.00

COCCn1nc(-c2ccccc2)cc1Nc1cnccc1C(=O)O [Compound 27, 3-((1-(2-Methoxyethyl)-3-phenyl-1H-pyrazol-5-yl)amino) isonicotinic acid]
pIC50: 6.00 to 7.00

CN(C)CCn1cc(-c2ccccc2)c(Nc2cnccc2C(=O)O)n1 [Compound 64, 3-((1-(2-(dimethylamino)ethyl)-4-phenyl-1H-pyrazol-3-yl)amino)isonicotinic acid]
pIC50: 7.00 to 9.00

Cc1nn(CCN(C)C)cc1Nc1cnccc1C(=O)O [Compound 107, 3-(1-(2-(dimethylamino)ethyl)-3-methyl-1H-pyrazol-4-ylamino) isonicotinic acid]
pIC50: 6.00 to 7.00

COc1ccccc1-n1cc(C)c(Nc2cnccc2C(=O)O)n1 [Compound 63, 3-((1-(2-methoxyphenyl)-4-methyl-1H-pyrazol-3-yl)amino) isonicotinic acid]
pIC50: 7.00 to 9.00

Cn1cc(-c2ccc(F)cc2)c(Nc2cnccc2C(=O)O)n1 [Compound 7, 3-((4-(4-Fluorophenyl)-1-methyl-1H-pyrazol-3-yl)amino) isonicotinic acid]
pIC50: 6.00 to 7.00

CC(C)n1nc(-c2ccccc2)cc1Nc1cnccc1C(=O)O [Compound 22, 3-((1-Isopropyl-3-phenyl-1H-pyrazol-5-yl)amino)isonicotinic acid]
pIC50: 6.00 to 7.00

Cc1c(Nc2cnccc2C(=O)O)cnn1C1CCNCC1 [Compound 68, 3-((5-methyl-1-(piperidin-4-yl)-1H-pyrazol-4-yl)amino)isonicotinic acid]
pIC50: 5.00 to 6.00

Cc1nn(-c2ccccc2)cc1Nc1cnccc1C(=O)O [Compound 19, 3-((3-Methyl-1-phenyl-1H-pyrazol-4-yl)amino)isonicotinic acid]
pIC50: 7.00 to 9.00

Cc1c(Nc2cnccc2C(=O)O)cnn1C1CCN(C2CCC2)CC1 [Compound 96]
pIC50: 5.00 to 6.00

Cc1nn(C2CCNCC2)cc1Nc1cnccc1C(=O)O [Compound 69, 3-((3-methyl-1-(piperidin-4-yl)-1H-pyrazol-4-yl)amino) isonicotinic acid]
pIC50: 6.00 to 7.00

O=C(O)c1ccncc1Nc1cn(CCN2CCC(F)(F)CC2)nc1-c1ccccc1 [Compound 17, 3-((1-(2-(4,4-Difluoropiperidin-1-yl)ethyl)-3-phenyl-1H-pyrazol-4-yl)amino)isonicotinic acid]
pIC50: 6.00 to 7.00

Cn1cc(-c2ccccc2F)c(Nc2cnccc2C(=O)O)n1 [Compound 11, 3-((4-(2-Fluorophenyl)-1-methyl-1H-pyrazol-3-yl)amino) isonicotinic acid]
pIC50: 5.00 to 6.00

O=C(O)c1ccncc1Nc1nn(C2CCOCC2)cc1-c1ccccc1 [Compound 72, 3-((4-phenyl-1-(tetrahydro-2H-pyran-4-yl)-1H-pyrazol-3-yl)amino)isonicotinic acid]
pIC50: 6.00 to 7.00

Cn1cc(Nc2cnccc2C(=O)O)c(-c2ccccc2)n1 [Compound 13, 3-((1-methyl-3-phenyl-1H-pyrazol-4-yl)amino) isonicotinic acid]
pIC50: 5.00 to 6.00

CN(C)CCCn1cc(-c2ccccc2)c(Nc2cnccc2C(=O)O)n1 [Compound 51, 3-((1-(3-(dimethylamino)propyl)-4-phenyl-1H-pyrazol-3-yl)amino) isonicotinic acid]
pIC50: 7.00 to 9.00

Cn1nc(-c2ccccc2)cc1Nc1cnccc1C(=O)O [Compound 6]
pIC50: 7.00 to 9.00

O=C(O)c1ccncc1Nc1cc(-c2ccccc2)nn1[C@H]1CC[C@@H](O)CC1 [Compound 40, 3-((1-((cis)-4-Hydroxycyclohexyl)-3-phenyl-1H-pyrazol-5-yl)amino)isonicotinic acid]
pIC50: 5.00 to 6.00

O=C(O)c1ccncc1Nc1cc(-c2ccccc2)nn1-c1ccccc1 [Compound 21, 3-((1,3-Diphenyl-1H-pyrazol-5-yl)amino)isonicotinic acid]
pIC50: 6.00 to 7.00

Cn1ncc(-c2cccc(F)c2)c1Nc1cnccc1C(=O)O [Compound 10, 3-((4-(3-Fluorophenyl)-1-methyl-1H-pyrazol-5-yl)amino) isonicotinic acid]
pIC50: 4.00 to 5.00
